# Target: recombinant human BACE-1 protein (Homo sapiens (Human), UniProt P56817)
# Test: Measurement of inhibition of β-secretase activity (fluorescence-quenched peptide substrate, time-resolved fluorescence)
# Assay type: biochemical
# Conditions: recombinant human BACE-1 7.4 nM, substrate peptide 18 nM, pH 5.0, 3 h at 30° C.; same test as table 170
# Protocol: Zero point five μL of the test compounds (dissolved in N,N′-dimethylsulfoxide) were incubated with 48.5 μL of the fluorescence-quenched peptide substrate solution (Biotin-XSEVNLDAEFRHDSGC-Eu: X=εe-amino-n-capronic acid,Eu=Europium cryptate) and 1 μL of recombinant human BACE-1 protein (R&D systems) for 3 h at 30° C. in the 96 well half-area plate (black color plate,Costar). The substrate peptide was synthesized by reacting with Biotin-XSEVNLDAEFRHDSGC (Peptide Institute) and Cryptate TBPCOOH mono SMP (CIS bio international). […] The enzymatic reaction was performed in sodium acetate buffer (50 mM sodium acetate (pH 5.0), 0.008% Triton X-100). After the reaction, a 50 μL of 8.0 μg/mL Streptavidin-XL665 (CIS bio international) dissolved in phosphate buffer (150 mM K2HPO4—KH2PO4 (pH 7.0), 0.008% Triton X-100, 0.8 M KF) was add to each well and incubated for 1 h at 30° C.
# recombinant human BACE-1 protein, sequence (P56817 46-501): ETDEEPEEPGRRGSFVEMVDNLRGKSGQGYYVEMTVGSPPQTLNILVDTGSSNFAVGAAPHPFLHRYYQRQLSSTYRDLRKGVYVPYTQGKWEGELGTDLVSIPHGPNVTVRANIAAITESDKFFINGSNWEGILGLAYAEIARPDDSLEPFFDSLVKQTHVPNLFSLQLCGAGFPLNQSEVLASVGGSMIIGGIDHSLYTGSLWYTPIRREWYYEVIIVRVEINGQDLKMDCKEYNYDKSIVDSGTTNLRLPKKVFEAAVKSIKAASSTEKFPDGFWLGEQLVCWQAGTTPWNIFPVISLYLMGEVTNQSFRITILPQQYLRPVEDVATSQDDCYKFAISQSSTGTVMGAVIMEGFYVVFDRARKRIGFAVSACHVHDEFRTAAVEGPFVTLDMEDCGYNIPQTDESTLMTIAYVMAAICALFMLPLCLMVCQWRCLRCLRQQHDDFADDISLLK
row,IC50 [µM],SMILES
1,< 100,CC1(c2cc(NC(=O)c3ccc(Cl)cc3)cc(S(C)(=O)=O)c2)CCSC(N)=N1 (stereo not drawn) [Compound 30]
2,< 100,CC1(c2cccc(NC(=O)/C=C/c3cccc(F)c3)c2)CCSC(N)=N1 (stereo not drawn) [Compound 36]
3,< 100,CC1(c2cc(NC(=O)c3ccc(Br)cc3)cc(S(C)(=O)=O)c2)CCSC(N)=N1 (stereo not drawn) [Compound 71]
4,< 100,CC1(c2cccc(CCC(=O)Nc3ccccc3)c2)CCSC(N)=N1 (stereo not drawn) [Compound 732]
5,< 100,CC1(c2cccc(NC(=O)c3ncc(Br)cn3)c2)CCSC(N)=N1 (stereo not drawn) [Compound 900]
6,< 100,CC1(c2cccc(NC(=O)c3ccnnc3)c2)CCSC(N)=N1 (stereo not drawn) [Compound 1274]

# Test system: not given
# Test: not given
# Conditions: not given
row,melting point [°C],SMILES
1,194 to 195,CC1(c2ccccc2)CCOC(N)=N1.Cl (stereo not drawn)
2,181 to 183,CC1(c2cccc(NC(=O)c3ccc(C4CC4)cn3)c2)CCSC(N)=N1 (stereo not drawn) [Compound 738]
3,205 to 207,CC1(c2cccc(NC(=O)c3ncc(Br)cn3)c2)CCSC(N)=N1 (stereo not drawn) [Compound 900]
